Assay results from ChEMBL document CHEMBL3525899, “Identification of the cytochrome P450 and other enzymes involved in the in vitro oxidative metabolism of a novel antidepressant, Lu AA21004” (Drug Metab Dispos, 2012).

How the values were obtained:
Liver microsome [1] = test: Drug level in human liver microsomes treated with (3-methyl-4-(2-(piperazin-1-yl)phenylthio)phenyl)methanol at 50 uM after 20 mins by HPLC/MS-MS analysis in presence of NADPH regenerating system with NADP+; format: ADME
Liver microsome [2] = test: Drug level in phenotyped human liver microsomes treated with (3-methyl-4-(2-(piperazin-1-yl)phenylthio)phenyl)methanol at 8 to 50 uM after 15 mins by HPLC/MS-MS analysis in presence of NADPH regenerating system with NADP+; format: ADME; settings: 0.25 h
Cytochrome P450 2D6 [3] = molecular target: T1, Cytochrome P450 2D6 (Homo sapiens, UniProt P10635); test: Activity of human recombinant CYP2D6 expressed in microsomes isolated from human AHH-1 cells assessed as enzyme-mediated compound formation treated with (3-methyl-4-(2-(piperazin-1-yl)phenylthio)phenyl)methanol at 8 to 50 uM after 120 mins by HPLC/MS-MS analysis in presence of NADPH regenerating system with NADP+; format: ADME, cell-free; settings: 2 h
[4] = Drug level in human liver S9 fractions treated with (3-methyl-4-(2-(piperazin-1-yl)phenylthio)phenyl)methanol at 8 to 50 uM after 20 mins by HPLC/MS-MS analysis in presence of NADPH regenerating system with NAD+; format: ADME, subcellular, Liver S9 fraction; settings: s9, 20 min
Liver microsome [5] = test: Drug level in human liver microsomes treated with (3-methyl-4-(2-(piperazin-1-yl)phenylthio)phenyl)methanol at 50 uM after 20 mins by HPLC/MS-MS analysis in absence of NADPH regenerating system with NADP+; format: ADME
Cytochrome P450 2D6 [6] = molecular target: T1, Cytochrome P450 2D6; test: Activity of human recombinant CYP2D6 expressed in microsomes isolated from human AHH-1 cells assessed as enzyme-mediated compound formation treated with Lu AA21004 at 8 to 50 uM after 120 mins by HPLC/MS-MS analysis in presence of NADPH regenerating system with NADP+; format: ADME, cell-free; settings: 2 h
Liver = test: Drug level in human liver S9 fractions treated with (3-methyl-4-(2-(piperazin-1-yl)phenylthio)phenyl)methanol at 8 to 50 uM after 20 mins by HPLC/MS-MS analysis in absence of NADPH regenerating system with NAD+; format: ADME, tissue-based; settings: s9, 20 min
Liver microsome [7] = test: Drug level in pooled human liver microsomes treated with Lu AA21004 at 100 uM after 30 to 180 mins by HPLC/MS-MS analysis in presence of NADPH regenerating system with NADP+; format: ADME
Liver microsome [8] = test: Drug level in phenotyped human liver microsomes treated with Lu AA21004 at 8 to 50 uM after 60 mins by HPLC/MS-MS analysis in presence of NADPH regenerating system with NADP+; format: ADME; settings: 1 h
[9] = Drug level in pooled human liver S9 fractions treated with (3-methyl-4-(2-(piperazin-1-yl)phenylthio)phenyl)methanol at 2 to 50 uM after 20 mins by HPLC/MS-MS analysis in presence of NADPH regenerating system with NAD+ and xanthine oxidase inhibitor allopurinol; format: ADME, subcellular, Liver S9 fraction; settings: s9, 20 min
Cytochrome P450 2A6 = molecular target: T2, Cytochrome P450 2A6 (Homo sapiens, UniProt P11509); test: Activity of human recombinant CYP2A6 expressed in microsomes isolated from human AHH-1 cells assessed as enzyme-mediated compound formation treated with Lu AA21004 at 8 to 50 uM after 120 mins by HPLC/MS-MS analysis in presence of NADPH regenerating system with NADP+; format: ADME, cell-free; settings: 2 h
T2 sequence (P11509 whole entry): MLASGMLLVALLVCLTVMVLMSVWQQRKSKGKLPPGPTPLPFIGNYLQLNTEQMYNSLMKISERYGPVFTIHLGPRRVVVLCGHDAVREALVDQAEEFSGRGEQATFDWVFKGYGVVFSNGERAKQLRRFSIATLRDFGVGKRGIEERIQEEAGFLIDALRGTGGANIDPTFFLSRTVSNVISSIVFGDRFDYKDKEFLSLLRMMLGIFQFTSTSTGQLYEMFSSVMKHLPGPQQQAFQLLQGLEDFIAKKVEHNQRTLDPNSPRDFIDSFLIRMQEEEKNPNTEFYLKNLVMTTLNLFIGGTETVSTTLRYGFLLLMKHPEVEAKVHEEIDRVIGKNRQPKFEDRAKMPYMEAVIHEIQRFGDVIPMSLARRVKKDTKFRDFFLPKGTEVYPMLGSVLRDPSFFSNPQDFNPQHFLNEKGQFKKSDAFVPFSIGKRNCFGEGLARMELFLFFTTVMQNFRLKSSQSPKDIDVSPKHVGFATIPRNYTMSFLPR

Cytochrome P450 3A4 = Cytochrome P450 3A4 (Homo sapiens, UniProt P08684); test: Activity of human recombinant CYP3A4 expressed in microsomes isolated from human AHH-1 cells assessed as enzyme-mediated compound formation treated with Lu AA21004 at 8 to 50 uM after 120 mins by HPLC/MS-MS analysis in presence of NADPH regenerating system with NADP+; format: ADME, cell-free; settings: 2 h
Cytochrome P450 2C8 = molecular target: T3, Cytochrome P450 2C8 (Homo sapiens, UniProt P10632); test: Activity of human recombinant CYP2C8 expressed in microsomes isolated from human AHH-1 cells assessed as enzyme-mediated compound formation treated with Lu AA21004 at 8 to 50 uM after 120 mins by HPLC/MS-MS analysis in presence of NADPH regenerating system with NADP+; format: ADME, cell-free; settings: 2 h
T3 sequence (P10632 whole entry): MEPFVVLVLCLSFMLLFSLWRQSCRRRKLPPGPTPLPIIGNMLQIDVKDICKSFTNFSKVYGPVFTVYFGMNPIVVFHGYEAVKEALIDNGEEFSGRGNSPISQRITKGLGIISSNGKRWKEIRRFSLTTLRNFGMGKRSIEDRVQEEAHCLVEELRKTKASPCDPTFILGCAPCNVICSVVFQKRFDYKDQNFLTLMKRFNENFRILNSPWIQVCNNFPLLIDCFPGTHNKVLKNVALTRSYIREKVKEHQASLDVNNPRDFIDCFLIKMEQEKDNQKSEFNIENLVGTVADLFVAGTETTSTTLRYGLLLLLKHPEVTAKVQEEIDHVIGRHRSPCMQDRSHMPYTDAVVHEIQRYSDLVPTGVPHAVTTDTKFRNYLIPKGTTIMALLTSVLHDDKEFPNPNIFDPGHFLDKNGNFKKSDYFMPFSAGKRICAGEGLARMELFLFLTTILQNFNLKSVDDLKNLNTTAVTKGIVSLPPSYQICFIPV

Cytochrome P450 2C9 = Cytochrome P450 2C9 (Homo sapiens, UniProt P11712); test: Activity of human recombinant CYP2C9 expressed in microsomes isolated from human AHH-1 cells assessed as enzyme-mediated compound formation treated with Lu AA21004 at 8 to 50 uM after 120 mins by HPLC/MS-MS analysis in presence of NADPH regenerating system with NADP+; format: ADME, cell-free; settings: 2 h
Cytochrome P450 2C19 = Cytochrome P450 2C19 (Homo sapiens, UniProt P33261); test: Activity of human recombinant CYP2C19 expressed in microsomes isolated from human AHH-1 cells assessed as enzyme-mediated compound formation treated with Lu AA21004 at 8 to 50 uM after 120 mins by HPLC/MS-MS analysis in presence of NADPH regenerating system with NADP+; format: ADME, cell-free; settings: 2 h
Cytochrome P450 2C19, sequence (P33261 whole entry): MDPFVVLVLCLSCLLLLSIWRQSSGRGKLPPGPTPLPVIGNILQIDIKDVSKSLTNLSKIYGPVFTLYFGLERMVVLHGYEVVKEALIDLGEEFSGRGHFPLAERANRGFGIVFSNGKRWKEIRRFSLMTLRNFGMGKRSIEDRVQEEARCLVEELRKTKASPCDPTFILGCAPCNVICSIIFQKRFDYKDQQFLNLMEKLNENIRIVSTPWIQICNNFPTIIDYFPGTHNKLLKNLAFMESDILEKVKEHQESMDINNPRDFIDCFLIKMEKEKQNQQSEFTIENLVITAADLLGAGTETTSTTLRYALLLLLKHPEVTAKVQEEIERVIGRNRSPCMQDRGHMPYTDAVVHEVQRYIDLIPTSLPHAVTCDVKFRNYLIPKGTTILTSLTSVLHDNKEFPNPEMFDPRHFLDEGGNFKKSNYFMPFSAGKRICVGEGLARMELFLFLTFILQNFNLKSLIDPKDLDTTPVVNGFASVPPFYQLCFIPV

T1 sequence (P10635 whole entry): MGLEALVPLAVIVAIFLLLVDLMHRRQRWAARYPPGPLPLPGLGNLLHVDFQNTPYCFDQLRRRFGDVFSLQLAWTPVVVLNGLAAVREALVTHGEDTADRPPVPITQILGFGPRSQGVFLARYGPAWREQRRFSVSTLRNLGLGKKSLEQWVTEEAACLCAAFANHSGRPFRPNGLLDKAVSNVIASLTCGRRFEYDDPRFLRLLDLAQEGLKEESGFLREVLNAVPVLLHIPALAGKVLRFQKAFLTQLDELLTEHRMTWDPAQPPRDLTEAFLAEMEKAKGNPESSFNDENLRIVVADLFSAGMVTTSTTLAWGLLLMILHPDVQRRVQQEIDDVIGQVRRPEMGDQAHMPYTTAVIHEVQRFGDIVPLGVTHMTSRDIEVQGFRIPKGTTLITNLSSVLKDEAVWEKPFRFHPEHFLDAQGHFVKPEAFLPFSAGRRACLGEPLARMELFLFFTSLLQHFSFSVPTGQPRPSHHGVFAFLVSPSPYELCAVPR
Cytochrome P450 3A4, sequence (P08684 whole entry): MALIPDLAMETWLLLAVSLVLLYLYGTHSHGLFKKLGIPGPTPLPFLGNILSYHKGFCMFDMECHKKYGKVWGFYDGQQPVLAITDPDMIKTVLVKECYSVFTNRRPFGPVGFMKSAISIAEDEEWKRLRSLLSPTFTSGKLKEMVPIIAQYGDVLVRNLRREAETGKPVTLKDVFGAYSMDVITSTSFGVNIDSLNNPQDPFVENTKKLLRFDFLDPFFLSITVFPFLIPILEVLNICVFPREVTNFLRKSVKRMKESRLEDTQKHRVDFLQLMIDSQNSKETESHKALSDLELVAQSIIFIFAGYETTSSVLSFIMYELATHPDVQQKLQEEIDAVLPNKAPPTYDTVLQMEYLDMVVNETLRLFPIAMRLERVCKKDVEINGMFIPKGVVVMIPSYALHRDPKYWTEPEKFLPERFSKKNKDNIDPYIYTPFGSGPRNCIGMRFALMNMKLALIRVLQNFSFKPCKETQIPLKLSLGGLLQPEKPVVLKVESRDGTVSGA
Cytochrome P450 2C9, sequence (P11712 whole entry): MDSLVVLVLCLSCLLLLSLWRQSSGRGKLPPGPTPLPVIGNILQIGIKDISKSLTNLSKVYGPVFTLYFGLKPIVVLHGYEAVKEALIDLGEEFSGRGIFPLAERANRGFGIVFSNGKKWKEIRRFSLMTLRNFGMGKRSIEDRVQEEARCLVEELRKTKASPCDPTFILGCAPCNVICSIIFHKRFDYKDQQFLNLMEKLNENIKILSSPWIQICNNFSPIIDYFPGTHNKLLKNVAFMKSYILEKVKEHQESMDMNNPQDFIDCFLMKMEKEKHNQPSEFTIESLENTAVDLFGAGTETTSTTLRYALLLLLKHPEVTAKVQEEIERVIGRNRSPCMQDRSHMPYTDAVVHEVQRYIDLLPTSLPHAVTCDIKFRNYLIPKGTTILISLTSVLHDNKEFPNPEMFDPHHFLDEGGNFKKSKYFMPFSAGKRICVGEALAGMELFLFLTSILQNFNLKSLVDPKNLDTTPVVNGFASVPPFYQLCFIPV

Row | Drug metabolism (Liver microsome [1]) | Drug metabolism (Liver microsome [2]) | Drug metabolism (Cytochrome P450 2D6 [3]) | Drug metabolism [4] | Drug metabolism (Liver microsome [5]) | Drug metabolism (Liver) | Drug metabolism (Liver microsome [7]) | Drug metabolism (Liver microsome [8]) | Drug metabolism [9] | Drug metabolism (Cytochrome P450 2A6) | Drug metabolism (Cytochrome P450 3A4) | Drug metabolism (Cytochrome P450 2C8) | Compound | Drug metabolism (Cytochrome P450 2D6 [6]) | Drug metabolism (Cytochrome P450 2C9) | Drug metabolism (Cytochrome P450 2C19)
1 | metabolite_detected | metabolite_detected | metabolite_detected | metabolite_detected | metabolite_detected | metabolite_detected | metabolite_detected | metabolite_detected | metabolite_detected | – | – | – | Cc1cc(C(=O)O)ccc1Sc1ccccc1N1CCNCC1 | metabolite_detected | – | –
2 | – | – | – | – | – | – | metabolite_detected | metabolite_detected | – | metabolite_detected | metabolite_detected | metabolite_detected | Cc1ccc([S+]([O-])c2ccccc2N2CCNCC2)c(C)c1.O=C(O)/C=C/C(=O)O (stereo not given) | – | – | –

Row | Compound | Drug metabolism (Liver microsome [1]) | Drug metabolism (Liver microsome [2]) | Drug metabolism (Cytochrome P450 2D6 [3]) | Drug metabolism [4] | Drug metabolism (Liver microsome [5]) | Drug metabolism (Liver) | Drug metabolism (Liver microsome [7]) | Drug metabolism (Liver microsome [8]) | Drug metabolism [9] | Drug metabolism (Cytochrome P450 2A6) | Drug metabolism (Cytochrome P450 3A4) | Drug metabolism (Cytochrome P450 2C8) | Drug metabolism (Cytochrome P450 2D6 [6]) | Drug metabolism (Cytochrome P450 2C9) | Drug metabolism (Cytochrome P450 2C19)
3 | Cc1ccc(Sc2cc([O-])ccc2N2CCNCC2)c(C)c1.[Na+] | – | – | – | – | – | – | metabolite_detected | metabolite_detected | – | – | – | – | metabolite_detected | metabolite_detected | metabolite_detected
